Experimental findings from ChEMBL document CHEMBL5647694, “Novel orally bioavailable EZH1/2 dual inhibitors with greater antitumor efficacy than an EZH2 selective inhibitor” (Cancer Sci, 2017) are described below.

The target in experiment [1] is Casein kinase I isoform epsilon (Homo sapiens) (UniProt P49674). Briefly: Inhibition of N-terminal GST-fused human CK1-epsilon catalytic domain (1 to 348 residues) expressed in baculovirus expression system using CKtide as substrate at 1 uM in presence of ATP by Mobility shift assay.
Experiment [2] has as its target Vascular endothelial growth factor receptor 3 (Homo sapiens) (UniProt P35916). The experiment can be described thus: Inhibition of N-terminal GST-fused human FLT4 cytoplasmic domain (798 to 1298 residues) expressed in baculovirus-infected Sf21 cells using CSKtide as substrate at 1 uM in presence of ATP by Mobility shift assay.
Experiment [3] concerns the target BDNF/NT-3 growth factors receptor (Homo sapiens) (UniProt Q16620). The experiment can be described thus: Inhibition of N-terminal GST-tagged human TRKB cytoplasmic domain (456 to 822 residues) expressed in baculovirus-infected Sf21 cells using Srctide as substrate at 1 uM in presence of ATP by Mobility shift assay.
Experiment [4] addresses Lymphokine-activated killer T-cell-originated protein kinase (Homo sapiens) (UniProt Q96KB5). The experiment can be described thus: Inhibition of N-terminal GST-fused full length human PBK (1 to 322 residues) expressed in baculovirus expression system using Histone H3 peptide as substrate at 1 uM in presence of ATP by Mobility shift assay.
The target in experiment [5] is Serine/threonine-protein kinase 24 (Homo sapiens) (UniProt Q9Y6E0). Briefly: Inhibition of N-terminal GST-fused full length human MST3 (1 to 431 residues) expressed in baculovirus expression system using Moesin-derived peptide as substrate at 1 uM in presence of ATP by Mobility shift assay.
The target of experiment [6] is Vascular endothelial growth factor receptor 1 (Homo sapiens) (UniProt P17948). Briefly: Inhibition of N-terminal GST-fused human FLT1 cytoplasmic domain (781 to 1338 residues) expressed in baculovirus-infected Sf21 cells using CSKtide as substrate at 1 uM in presence of ATP by Mobility shift assay.
Experiment [7] deals with Proto-oncogene tyrosine-protein kinase receptor Ret (Homo sapiens) (UniProt P07949). The experiment can be described thus: Inhibition of N-terminal GST-tagged human RET cytoplasmic domain (658 to 1114 residues) expressed in baculovirus-infected Sf21 cells using CSKtide as substrate at 1 uM in presence of ATP by Mobility shift assay.
For experiment [8], the target named is High affinity nerve growth factor receptor (Homo sapiens) (UniProt P04629). Briefly: Inhibition of N-terminal GST-tagged human TRKA cytoplasmic domain (436 to 790 residues) expressed in baculovirus-infected Sf21 cells using CSKtide as substrate at 1 uM in presence of ATP by Mobility shift assay.
Experiment [9] addresses Calcium/calmodulin-dependent protein kinase type IV (Homo sapiens) (UniProt Q16566). Briefly: Inhibition of N-terminal GST-tagged full length human CAMK4 (1 to 473 residues) expressed in baculovirus-infected Sf21 cells using GS peptide as substrate at 1 uM in presence of ATP by Mobility shift assay.
Experiment [10] addresses Dual specificity protein kinase CLK2 (Homo sapiens) (UniProt P49760). Briefly: Inhibition of N-terminal GST-fused full length human CLK2 (1 to 499 residues) expressed in baculovirus expression system using DYRKtide-F as substrate at 1 uM in presence of ATP by Mobility shift assay.
In experiment [11] the target is Casein kinase II alpha'/ beta (Homo sapiens) (UniProt P67870+P19784). The experiment can be described thus: Inhibition of N-terminal GST-fused full length human CK2alpha2 (1 to 350 residues)/His-tagged human CK2beta (1 to 215 residues ) expressed in baculovirus expression system using CK2tide as substrate at 1 uM in presence of ATP by Mobility shift assay.
In experiment [12] the target is Serine/threonine-protein kinase Sgk3 (Homo sapiens) (UniProt Q96BR1). Briefly: Inhibition of N-terminal GST-fused truncated human SGK3 (119 to 496 residues) expressed in baculovirus expression system using SGKtide as substrate at 1 uM in presence of ATP by Mobility shift assay.
Experiment [13] addresses Ephrin type-A receptor 5 (Homo sapiens) (UniProt P54756). Briefly: Inhibition of N-terminal GST-fused human EPHA5 catalytic domain (662 to 948 residues) expressed in baculovirus-infected Sf21 cells using Blk/Lyntide as substrate at 1 uM in presence of ATP by Mobility shift assay.
Experiment [14] deals with NUAK family SNF1-like kinase 1 (Homo sapiens) (UniProt O60285). The experiment can be described thus: Inhibition of N-terminal GST-fused full length human Nuak1 (1 to 661 residues) expressed in baculovirus expression system using CHKtide as substrate at 1 uM in presence of ATP by Mobility shift assay.
For experiment [15], the target named is Receptor tyrosine-protein kinase erbB-4 (Homo sapiens) (UniProt Q15303). The experiment can be described thus: Inhibition of N-terminal GST-fused human HER4 cytoplasmic domain (676 to 1308 residues) expressed in baculovirus infected Sf21 cells using Srctide as substrate at 1 uM in presence of ATP by Mobility shift assay.
Experiment [16] has as its target Protein kinase C delta type (Homo sapiens) (UniProt Q05655). Briefly: Inhibition of N-terminal GST-fused human full length PKC-delta (1 to 676 residues ) expressed in baculovirus expression system using PKC peptide as substrate at 1 uM in presence of ATP by Mobility shift assay.
In experiment [17] the target is Tyrosine-protein kinase ZAP-70 (Homo sapiens) (UniProt P43403). Briefly: Inhibition of N-terminal GST-tagged full length human ZAP70 (1 to 619 residues) expressed in baculovirus-infected Sf21 cells using Blk/Lyntide as substrate at 1 uM in presence of ATP by Mobility shift assay.
Experiment [18] addresses Discoidin domain-containing receptor 2 (Homo sapiens) (UniProt Q16832). Briefly: Inhibition of N-terminal GST-fused human DDR2 cytoplasmic domain (422 to 855 residues) expressed in baculovirus-infected Sf21 cells using IRS1 as substrate at 1 uM in presence of ATP by Mobility shift assay.
Experiment [19] has as its target PAS domain-containing serine/threonine-protein kinase (Homo sapiens) (UniProt Q96RG2). The experiment can be described thus: Inhibition of N-terminal GST-fused human PASK catalytic domain (949 to 1323 residues) expressed in baculovirus expressing system using GS peptide as substrate at 1 uM in presence of ATP by Mobility shift assay.
Experiment [20] addresses ALK tyrosine kinase receptor (Homo sapiens) (UniProt Q9UM73). The experiment can be described thus: Inhibition of N-terminal GST-fused wild type human ALK cytoplasmic domain (1058 to 1620 residues ) expressed in baculovirus-infecetd Sf21 cells using Srctide as substrate at 1 uM in presence of ATP by Mobility shift assay.
For experiment [21], the target named is Serine/threonine-protein kinase LATS2 (Homo sapiens) (UniProt Q9NRM7). Briefly: Inhibition of N-terminal GST-fused human LATS2 catalytic domain (553 to 1088 residues) expressed in baculovirus expression system using SGKtide as substrate at 1 uM in presence of ATP by Mobility shift assay.
Experiment [22] has as its target Serine/threonine-protein kinase Nek1 (Homo sapiens) (UniProt Q96PY6). Briefly: Inhibition of N-terminal GST-fused human NEK1 catalytic domain (1 to 505 residues) expressed in baculovirus expression system using CDK7 peptide as substrate at 1 uM in presence of ATP by Mobility shift assay.

A word on the inhibition: it is the drop in the measured response relative to a control, in per cent. On to `Cc1cc(C)c(CNC(=O)c2cc(Br)c3c(c2C)O[C@@](C)([C@H]2CC[C@H](N(C)C)CC2)O3)c(=O)[nH]1`, for which the inhibition in experiment [1] is 1.5%; in experiment [2] it was -1.5%; in [3] it was -2.8%; in experiment [4], -2.5%; in [5], -6.2%; in experiment [6], -4.4%. Also, the inhibition is -2.3% in experiment [7]; -5.1% in experiment [8]; -2.9% in experiment [9]; -1.6% in experiment [10]; -5.5% in experiment [11]; -4.5% in experiment [12]. Besides, the inhibition in experiment [13] is -6.3%; in experiment [14], -1.7%; in experiment [15] it was 2.6%; in experiment [16] it was 1.5%; in experiment [17], -6.2%; in experiment [18] it was -0.2%. The inhibition in experiment [19] is -3.7%; in [20] it was -2.8%; in [21], -0.6%; in experiment [22], -7%.
`Cc1cc(C)c(CNC(=O)c2cc(Cl)c3c(c2C)O[C@@](C)([C@H]2CC[C@H](N(C)C)CC2)O3)c(=O)[nH]1` [VALEMETOSTAT]: the inhibition in experiment [1] was -2.2%; in experiment [2], -1.9%; in [3], 0.6%; in experiment [4] it was -3.4%; in [5], -1.9%; in [6] it was -5.2%. Besides, the inhibition was -5.7% in [7]; -5.7% in experiment [8]; -7.2% in experiment [9]; 2.5% in [10]; -4.7% in [11]; 0.3% in experiment [12]. Further, the inhibition is -3.4% in [13]; 3% in experiment [14]; -0.2% in experiment [15]; 2.7% in [16]; -5.4% in experiment [17]; -2.8% in experiment [18]. The inhibition in [19] was -5.8%; in [20], -9.1%; in experiment [21], 0.6%; in experiment [22], -7%.
